Assays:
mouse [1] = settings: Carcinogenicity, cd1, Oral, Feed, dose end: 22 month, group: systemic
dog [2] = settings: Chronic toxicity; beagle; Oral; Capsule; dose end: 12 month; group: systemic; systemic / in life observation / clinical signs / emesis + systemic / in life observation / clinical signs / mucoid stools + systemic / in …
rabbit = settings: Prenatal developmental toxicity study, new zealand white, Oral, Gavage/Intubation, dose end: 19 GD
mouse [3] = settings: Carcinogenicity; cd1; Oral; Feed; dose end: 113 week; group: systemic; systemic / pathology microscopic / intestine small / adenocarcinoma + systemic / pathology microscopic / intestine small / adenoma + …
rat [4] = settings: Developmental neurotoxicity range-finding study, sprague dawley, Oral, Feed, dose end: 21 PND, group: cannot be grouped
dog [5] = settings: Chronic toxicity, beagle, Oral, Feed, dose end: 52 week
rat [6] = settings: Prenatal developmental toxicity study, sprague dawley, Oral, Gavage/Intubation, dose end: 15 GD
rat [7] = settings: Chronic toxicity, sprague dawley, Oral, Feed, dose end: 98 week, group: cholinesterase
rat [8] = settings: Subchronic oral toxicity in rodents, sprague dawley, Feed, dose end: 90 day
rat [9] = settings: Acute oral toxicity, wistar, [Not Specified], dose end: 7 day, group: systemic, systemic / clinical chemistry / calcium / calcium + systemic / urinalysis / calcium / calcium
[10] = systemic / pathology microscopic / intestine small / neoplasm nos + systemic / pathology microscopic / stomach / neoplasm nos + systemic / …
[11] = group: developmental, developmental / developmental malformation / bone / delayed ossification + developmental / developmental malformation / bone / full …
[12] = group: maternal, systemic / in life observation / body weight / body weight gain + systemic / in life observation / clinical signs / anorexia + systemic / in…
[13] = cholinesterase / cholinesterase / cholinesterase / plasma cholinesterase (che)
[14] = cholinesterase / cholinesterase / cholinesterase / plasma cholinesterase (che) + cholinesterase / cholinesterase / cholinesterase / brain …
[15] = group: cholinesterase, cholinesterase / cholinesterase / cholinesterase / cholinesterase (che) + cholinesterase / cholinesterase / cholinesterase / plasma …
[16] = group: systemic, systemic / organ weight / lung / relative to brain weight
[17] = group: developmental, developmental / developmental malformation / bone / short + systemic / in life observation / body weight / fetal weight
[18] = group: maternal, systemic / in life observation / body weight / body weight gain + reproductive / reproductive performance / postimplantation loss / …
[19] = group: cholinesterase, cholinesterase / cholinesterase / cholinesterase / plasma cholinesterase (che)
[20] = group: cholinesterase, cholinesterase / cholinesterase / cholinesterase / plasma cholinesterase (che) + cholinesterase / cholinesterase / cholinesterase / brain …
[21] = group: systemic, systemic / in life observation / body weight / body weight gain + systemic / in life observation / clinical signs / aggressive behavior + …

Molecule O=C1C2CC=CCC2C(=O)N1SC(Cl)(Cl)Cl (stereo unspecified) [Captan] has an LOAEL (mouse [1]; systemic / in life observation / body weight / body weight + systemic / in life observation / food consumption / food consumption) of 925 mg/kg/day, an LEL (mouse [1]; systemic / pathology microscopic / intestine small / neoplasm nos + systemic / pathology microscopic / stomach / neoplasm nos) of 60.9 mg/kg/day and an NEL (mouse [1]; [10]) of 15.1 mg/kg/day. It also gave an NOAEL (mouse [1]; [10]) of 123 mg/kg/day, an LEL (dog [2]) of 300 mg/kg/day and an LOAEL (dog [2]) of 300 mg/kg/day. For the same molecule, the NEL (dog [2]) was 60 mg/kg/day, the NOAEL (dog [2]) was 60 mg/kg/day and the LEL (rabbit; [11]) was 30 mg/kg/day. For the same molecule, the LOAEL (rabbit; [11]) was 30 mg/kg/day, the NEL (rabbit; [11]) was 10 mg/kg/day and the NOAEL (rabbit; [11]) was 10 mg/kg/day. The LEL (rabbit; [12]) was 30 mg/kg/day, the LOAEL (rabbit; [12]) was 30 mg/kg/day and the NEL (rabbit; [12]) was 10 mg/kg/day. The NOAEL (rabbit; [12]) was 10 mg/kg/day, the LEL (mouse [3]) was 599 mg/kg/day and the LOAEL (mouse [3]) was > 1880 mg/kg/day. For the same molecule, the NEL (mouse [3]) was < 599 mg/kg/day and the NOAEL (mouse [3]) was ≥ 1880 mg/kg/day.
CCOP(=S)(OCC)Oc1cc(C)nc(C(C)C)n1 [Diazinon] gave an LOAEL (rat [4]; [13]) of 0.063 mg/kg/day, an LEL (rat [4]; [14]) of 0.063 mg/kg/day and an NEL (rat [4]; [14]) of 0.0125 mg/kg/day. For the same molecule, the NOAEL (rat [4]; [14]) was 0.0125 mg/kg/day, the LEL (dog [5]; group: cholinesterase, cholinesterase / cholinesterase / cholinesterase / cholinesterase (che)) was 0.015 mg/kg/day and the NEL (dog [5]; group: cholinesterase, cholinesterase / cholinesterase / cholinesterase / cholinesterase (che) + cholinesterase / cholinesterase / cholinesterase / brain …) was 0.0032 mg/kg/day. The LOAEL (dog [5]; [15]) was 0.02 mg/kg/day, the NOAEL (dog [5]; [15]) was 0.0037 mg/kg/day and the LOAEL (dog [5]; group: systemic, systemic / clinical chemistry / [other] / [other] + systemic / in life observation / food consumption / food consumption) was 4.5 mg/kg/day. For the same molecule, the NOAEL (dog [5]; group: systemic, systemic / clinical chemistry / [other] / [other] + systemic / in life observation / food consumption / food consumption + systemic / in …) was 0.02 mg/kg/day, the LEL (dog [5]; [16]) was 0.0037 mg/kg/day and the NEL (dog [5]; [16]) was < 0.0037 mg/kg/day. The LOAEL (rat [6]; group: developmental, developmental / developmental malformation / bone / short) was 100 mg/kg/day, the LEL (rat [6]; [17]) was 100 mg/kg/day and the NEL (rat [6]; [17]) was 20 mg/kg/day. The NOAEL (rat [6]; [17]) was 20 mg/kg/day, the LOAEL (rat [6]; group: maternal, systemic / in life observation / body weight / body weight gain) was 100 mg/kg/day and the LEL (rat [6]; [18]) was 100 mg/kg/day. It also gave an NEL (rat [6]; [18]) of 20 mg/kg/day, an NOAEL (rat [6]; [18]) of 20 mg/kg/day and an LEL (rat [7]; [13]) of 0.06 mg/kg/day. For the same molecule, the LOAEL (rat [7]; [13]) was 0.06 mg/kg/day, the NEL (rat [7]; [14]) was 0.004 mg/kg/day and the NOAEL (rat [7]; [14]) was 0.004 mg/kg/day. The LEL (rat [8]; [19]) was 0.3 mg/kg/day, the LOAEL (rat [8]; [19]) was 0.3 mg/kg/day and the NEL (rat [8]; [20]) was 0.03 mg/kg/day. For the same molecule, the NOAEL (rat [8]; [20]) was 0.03 mg/kg/day, the LEL (rat [8]; [21]) was 168 mg/kg/day and the LOAEL (rat [8]; [21]) was > 168 mg/kg/day. For the same molecule, the NEL (rat [8]; [21]) was 15 mg/kg/day and the NOAEL (rat [8]; [21]) was ≥ 168 mg/kg/day.
For COc1ccc2c(c1)c(CC(=O)O)c(C)n2C(=O)c1ccc(Cl)cc1 [Indomethacin], the LEL (rat [9]) was 20 mg/kg/day, the LOAEL (rat [9]) was > 20 mg/kg/day and the NEL (rat [9]) was < 20 mg/kg/day. For the same molecule, the NOAEL (rat [9]) was ≥ 20 mg/kg/day.

Source: EPA's ToxRefDB 2
